Reference: PubChem BioAssay (NCI)
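How tested: cells in 96-well plates exposed to compound for 48 hours at five concentrations. Abbreviation: GI50, concentration required for 50% inhibition of growth. The concentration for full growth arrest is given as TGI.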

Key:
Experiment in all cases: NCI tumour cell line growth inhibition, 48 h
[1] = test system: ACHN renal
[2] = test system: K-562 leukemia
[3] = test system: MOLT-4 leukemia
[4] = test system: NCI-H460 lung
[5] = test system: OVCAR-5 ovarian
[6] = test system: SF-295 CNS
[7] = test system: SF-539 CNS
[8] = test system: SNB-75 CNS
[9] = test system: U251 CNS
[10] = test system: CAKI-1 renal

With `N.N.N.N.N.[Co+3].[I-].[N-]=[N+]=[N-]` the GI50 [1] was over 100 µM, the TGI [1] was over 100 µM and the GI50 [2] was over 100 µM. The TGI [2] was over 100 µM, the GI50 [3] was 5.41 µM and the TGI [3] was over 100 µM. The GI50 [4] was over 100 µM, the TGI [4] was over 100 µM and the GI50 [5] was over 100 µM. For the same compound, the TGI [5] was over 100 µM, the GI50 [6] was over 100 µM and the TGI [6] was over 100 µM. The GI50 [7] was over 100 µM, the TGI [7] was over 100 µM and the GI50 [8] was 76.9 µM. For the same compound, the TGI [8] was over 100 µM, the GI50 [9] was over 100 µM and the TGI [9] was over 100 µM.
For `COc1cc(Nc2nc3cc(N)cc(N)c3nc2-c2ccccc2)cc(OC)c1OC`, the GI50 [1] was 16.7 µM, the TGI [1] was 43 µM and the GI50 [10] was 15.5 µM. It also gave a TGI [10] of 48.5 µM, a GI50 [2] of 12.5 µM and a TGI [2] of 40.1 µM. The GI50 [3] was 2.57 µM, the TGI [3] was 18 µM and the GI50 [4] was 17.1 µM. For the same compound, the TGI [4] was 52.8 µM, the GI50 [5] was 21.3 µM and the TGI [5] was 46.7 µM. The GI50 [6] was 16 µM, the TGI [6] was 42.8 µM and the GI50 [7] was 14.8 µM. The TGI [7] was 28.9 µM, the GI50 [9] was 24.6 µM and the TGI [9] was over 100 µM.
For `O=C1C2Nc3ccccc3SC2C(=O)N1c1ccc(Br)cc1` (centres undefined), the TGI [1] was over 100 µM, the TGI [2] was over 100 µM and the TGI [3] was over 100 µM. It also gave a TGI [4] of over 100 µM, a TGI [5] of over 100 µM and a TGI [6] of over 100 µM. It also gave a TGI [7] of over 100 µM and a TGI [8] of 60.7 µM.
`CN1c2ccccc2N(C(=O)c2ccc([N+](=O)[O-])cc2)C(CC(=O)O)c2cccn21` (centres undefined) was tested, and the TGI [1] was over 100 µM, the TGI [10] was over 100 µM and the TGI [2] was over 100 µM. The TGI [3] was over 100 µM, the TGI [4] was over 100 µM and the TGI [5] was over 100 µM. The TGI [6] was over 100 µM, the TGI [7] was over 100 µM and the TGI [8] was over 100 µM.
`CS(=O)(=O)Nc1cncc(-c2ccc3ncnc(Nc4ccc(F)c(Cl)c4)c3c2)c1` was tested, and the GI50 [1] was 1.69 µM, the TGI [1] was over 100 µM and the GI50 [2] was 3.88 µM. For the same compound, the TGI [2] was 20.1 µM, the GI50 [3] was 1.6 µM and the TGI [3] was 4.65 µM. For the same compound, the GI50 [4] was 4.22 µM, the TGI [4] was 16 µM and the GI50 [5] was 2.4 µM. It also gave a TGI [5] of 22 µM, a GI50 [6] of 2.79 µM and a TGI [6] of 13 µM. It also gave a GI50 [7] of 2.24 µM, a TGI [7] of 11.3 µM and a GI50 [8] of 0.434 µM. The TGI [8] was 6.92 µM, the GI50 [9] was 3.03 µM and the TGI [9] was 15.2 µM.
`CCN1C/C(=C\c2cc(OC)c(OC)cc2OC)C(=O)/C(=C/c2cc(OC)c(OC)cc2OC)C1` showed a GI50 [1] of 2.08 µM, a TGI [1] of 4.45 µM and a GI50 [10] of 2.98 µM. The TGI [10] was 6.82 µM, the GI50 [2] was 3.58 µM and the TGI [2] was over 100 µM. The GI50 [3] was 4.1 µM, the TGI [3] was 81.6 µM and the GI50 [5] was 3.2 µM. The TGI [5] was over 100 µM, the GI50 [6] was 2.3 µM and the TGI [6] was 4.89 µM. The GI50 [7] was 2.61 µM, the TGI [7] was 7.33 µM and the GI50 [8] was 5.86 µM. The TGI [8] was 78 µM, the GI50 [9] was 3.08 µM and the TGI [9] was 14.3 µM.
For `O=C(N/C(=C\c1ccc(Cl)cc1)c1nc2ccccc2[nH]1)c1ccccc1`, the TGI [1] was 80.5 µM, the TGI [10] was 54.5 µM and the TGI [2] was 38.8 µM. The TGI [3] was 43.2 µM, the TGI [4] was 49.7 µM and the TGI [5] was 85 µM. It also gave a TGI [7] of 31.1 µM, a TGI [8] of 47.2 µM and a TGI [9] of 53.1 µM.
For `CC(=O)c1ccc2c(c1)c1cc(C(C)=O)ccc1n2CCNC(C)C`, the GI50 [10] was 0.304 µM, the TGI [10] was 10.5 µM and the GI50 [2] was 0.332 µM. It also gave a TGI [2] of 1.81 µM, a GI50 [3] of 0.337 µM and a TGI [3] of 1.79 µM. The GI50 [4] was 0.308 µM, the TGI [4] was 1.81 µM and the GI50 [5] was 0.462 µM. For the same compound, the TGI [5] was 5.56 µM, the GI50 [6] was 0.426 µM and the TGI [6] was 2.62 µM. For the same compound, the GI50 [7] was 0.478 µM, the TGI [7] was 2.02 µM and the GI50 [8] was 0.383 µM. The TGI [8] was 2.41 µM, the GI50 [9] was 0.386 µM and the TGI [9] was 6.05 µM.
Work on `C[C@@H](NC1CCCC[C@H]1O)c1ccccc1` (some centres undefined) yielded a TGI [1] of over 100 µM, a TGI [2] of over 100 µM and a TGI [3] of over 100 µM. It also gave a TGI [4] of over 100 µM, a TGI [6] of over 100 µM and a TGI [7] of over 100 µM. For the same compound, the TGI [8] was over 100 µM and the TGI [9] was over 100 µM.
`N#CCCN(c1ccc(C=Nc2ccccc2)cc1)S(=O)(=O)c1ccccc1` gave a TGI [10] of over 100 µM, a TGI [2] of over 100 µM and a TGI [3] of over 100 µM. For the same compound, the TGI [6] was over 100 µM, the TGI [7] was over 100 µM and the TGI [8] was over 100 µM.
`Nc1ncnc2c1ncn2[C@]1(CO)C=C(CO)C(O)C1O` (some centres undefined) showed a TGI [1] of over 100 µM, a TGI [10] of over 100 µM and a TGI [3] of over 100 µM. It also gave a TGI [4] of over 100 µM, a TGI [5] of over 100 µM and a TGI [6] of over 100 µM. The TGI [8] was over 100 µM and the TGI [9] was over 100 µM.
In the case of `CC(=O)OCC1OC(n2cc(F)c(=O)[nH]c2=O)C(NC(=O)N(CCCl)N=O)C(OC(C)=O)C1OC(C)=O` (centres undefined), the TGI [1] is reported as over 100 µM, the TGI [10] is reported as over 100 µM and the TGI [2] is reported as over 100 µM. It also gave a TGI [3] of over 100 µM, a TGI [4] of over 100 µM and a TGI [6] of over 100 µM. It also gave a TGI [7] of over 100 µM, a TGI [8] of 78.3 µM and a TGI [9] of over 100 µM.
With `O=C(Cc1ccc(/C=C/C(=O)c2ncc[nH]2)cc1)Nc1ccc(F)cc1` the GI50 [1] was 4.82 µM, the TGI [1] was 9.62 µM and the GI50 [2] was 1.3 µM. The TGI [2] was over 33.3 µM, the GI50 [3] was 5.74 µM and the TGI [3] was over 33.3 µM. The GI50 [4] was 1.72 µM, the TGI [4] was 14.6 µM and the GI50 [5] was 2.6 µM. It also gave a TGI [5] of 9.81 µM, a GI50 [6] of 4.74 µM and a TGI [6] of 11.5 µM. It also gave a GI50 [7] of 0.845 µM, a TGI [7] of 2.66 µM and a GI50 [8] of 11.1 µM. For the same compound, the TGI [8] was over 33.3 µM, the GI50 [9] was 1.2 µM and the TGI [9] was 4.5 µM.
`C/C(=C1/N=C(c2cc([N+](=O)[O-])ccc2Cl)N(c2cccc(C)c2)C1=O)c1cc2ccccc2oc1=O` was tested, and the TGI [1] was over 100 µM, the TGI [10] was over 100 µM and the TGI [2] was over 100 µM. For the same compound, the TGI [3] was over 100 µM, the TGI [4] was over 100 µM and the TGI [5] was over 100 µM. For the same compound, the TGI [6] was over 100 µM and the TGI [8] was over 100 µM.
In the case of `COC(=O)C(Cc1cc(OC)c(OC)c(OC)c1)C(=O)OC`, the TGI [1] is reported as over 320 µM, the TGI [10] is reported as over 320 µM and the TGI [2] is reported as over 320 µM. It also gave a TGI [3] of over 320 µM, a TGI [4] of over 320 µM and a TGI [5] of over 320 µM. It also gave a TGI [6] of over 320 µM and a TGI [9] of over 320 µM.
`Cc1ccc(S(=O)(=O)OCCn2cnc3nc(NC(=O)c4ccccc4)[nH]c(=O)c32)cc1` gave a TGI [1] of over 100 µM, a TGI [10] of over 100 µM and a TGI [2] of over 100 µM. The TGI [4] was over 100 µM, the TGI [5] was over 100 µM and the TGI [6] was over 100 µM. It also gave a TGI [7] of over 100 µM, a TGI [8] of over 100 µM and a TGI [9] of over 100 µM.
`CCOC(=O)/C(=C/N1CCN(C(=O)c2ccco2)C1=S)C(=O)c1ccccc1` showed a GI50 [1] of 8.48 µM, a TGI [1] of 17.6 µM and a GI50 [10] of 15.9 µM. The TGI [10] was over 50 µM, the GI50 [2] was 15.7 µM and the TGI [2] was over 50 µM. For the same compound, the GI50 [3] was 19.6 µM, the TGI [3] was over 50 µM and the GI50 [4] was 4.87 µM. For the same compound, the TGI [4] was 15.4 µM, the GI50 [6] was 16.4 µM and the TGI [6] was over 50 µM. The GI50 [8] was 46 µM, the TGI [8] was over 50 µM and the GI50 [9] was 11.5 µM. For the same compound, the TGI [9] was over 50 µM.
`CN(C)C=Nc1ccn(CCO)c(=O)n1` gave a TGI [1] of over 100 µM, a TGI [2] of over 100 µM and a TGI [3] of over 100 µM. For the same compound, the TGI [4] was over 100 µM, the TGI [5] was over 100 µM and the TGI [7] was over 100 µM. For the same compound, the TGI [8] was over 100 µM and the TGI [9] was over 100 µM.
